Patent US20170275287A1, “NOVEL N2, N4, N7, 6-TETRASUBSTITUTED PTERIDINE-2,4,7-TRIAMINE AND 2, 4, 6, 7-TETRASUBSTITUTED PTERIDINE COMPOUNDS AND METHODS OF SYNTHESIS AND USE THEREOF” (Janus Biotherapeutics, Inc., priority 2014, published 2017)
Read-outs that look alike come from different tables or passages of the source.

Experiments:
[1] = Protein binding, human plasma (CEREP); assay type: in vitro ADME; conditions: read-out: Protein Binding, Human Plasma, % bound (converted)
Protocol: Preliminary screening measures were conducted by CEREP. All values fall within acceptable limits (Table 5). Solubility assays where performed by CEREP, Seattle, Wash., according to Lipinski, C. A. et al., 1997, Adv. Drug Del. Rev., 46:3-26. Protein binding assays where performed by CEREP, Seattle, Wash., according to Banker, M. J. et al., 2003, J. Pharm. Sci., 92:967-974. Permeability assays where performed by CEREP, Seattle, Wash. according to Hildalgo, I. J., 1998, Gastroenterology, 96:736-749. Metabolic stability assays where performed by CEREP, Seattle, Wash., according to Obach, R. S. et al., 1997, J. Pharmacol. Exp. Ther., 283:46-58. P-glycoprotein inhibition assays where performed by CEREP, Seattle, Wash., according to Polli, J. W. et al., 2001, J. Pharm. Exp. Ther., 299:620-628. Cell viability assays where performed by CEREP, Seattle, Wash., according to Mosmann, T., 1983, J. Immunol. Met. 65:55-62. hERG automated patch clamp assays where performed by CEREP, Seattle, Wash., according to Mathes, C., 2006, Expert Opin. Ther. Targets, 10:230-241.

[2] = PK/PD study: whole blood JB6121 after 7 days oral dosing; assay type: in vivo, Sprague-Dawley rats; conditions: for AUC(0-t)/D / Cmax/D / AUC(0-t) / Cmax / Tmax / AUC / half-life: Day 7; for AUC(0-t) / Cmax / Tmax / concentration at 2 h / concentration at 3 h / concentration at 4 h / concentration at 5 h / AUC / half-life: Sprague-Dawley, rat, whole blood; for concentration at 2 h: Day 7, 2 h; for concentration at 3 h: Day 7, 3 h; for concentration at 4 h: Day 7, 4 h; for concentration at 5 h: Day 7, 5 h; for AUC: read-out: AUC Extrap; for half-life: read-out: t½ (converted)
Protocol: The objective of this study was to collect serum following ODN CpG 1668 administration and to determine the pharmacokinetics of JB6121 following oral administration to Sprague-Dawley rats for 7 days. There was a pre-test to establish the appropriate agonist dose for a TLR9 ligand, CpG DNA ODN 1668, in rats using serum IL-12 as the monitored cytokine, groups 1-3, see table 6. Whole blood samples for serum were collected terminally from each animal 3 hours following dosing with ODN CpG 1668. Serum IL-12 was determined by ELISA, data not shown. An agonist dose of lmg/kg was selected for the next phase of the study. For groups administered JB6121 (Groups 4-7), formulations were corrected for base/salt components and not corrected for purity. On the initial day of dose administration, JB6121 formulations were prepared using sterile PBS to the adjusted target dosing concentrations using a factor of 0.8265 to correct for salt content. Dosing was performed as outlined in the following Table 9.
Animals were assigned to four groups (groups 4-7) and administered JB6121 at 0.39, 1.56, 6.25, or 25 mg/kg in a volume of […] once per day by oral gavage for 7 days. On Day 7, two hours following the JB6121 dose (approximate Cmax), ODN CpG 1668 was administered as a single IP dose at 1 mg/kg in a volume of 1 mL/kg. Whole blood samples for bioanalysis and serum samples for serum cytokine analysis were collected by tail vein bleeding or terminally by cardiac puncture at t=2, 3, 4 and 5 h.

CN1CCN(c2nc(NCCN3CCOCC3)c3nc(Cl)c(NCCN4CCOCC4)nc3n2)CC1 [JB6121, 6-chloro-2-(4-methylpiperazin-1-yl)-N^4,N^7-bis(2-morpholinoethyl)pteridine-4,7-diamine]
fraction unbound [1]: 0.13 | AUC(0-t)/D ([2]; 0.39 mg/kg PO daily x7 days): 24.8 ng · h/mL/mg/kg/day | Cmax/D ([2]; 0.39 mg/kg PO daily x7 days): 13.4 ng/mL/mg/kg/day | AUC(0-t)/D ([2]; 1.56 mg/kg PO daily x7 days): 13.6 ng · h/mL/mg/kg/day | Cmax/D ([2]; 1.56 mg/kg PO daily x7 days): 6.96 ng/mL/mg/kg/day | AUC(0-t)/D ([2]; 6.25 mg/kg PO daily x7 days): 34.8 ng · h/mL/mg/kg/day | Cmax/D ([2]; 6.25 mg/kg PO daily x7 days): 15.2 ng/mL/mg/kg/day | AUC(0-t)/D ([2]; 25 mg/kg PO daily x7 days): 63 ng · h/mL/mg/kg/day | Cmax/D ([2]; 25 mg/kg PO daily x7 days): 28.4 ng/mL/mg/kg/day | AUC(0-t) ([2]; 0.39 mg/kg PO daily x7 days): 9.68 ng·h/mL | Cmax ([2]; 0.39 mg/kg PO daily x7 days): 5.24 ng/mL | Tmax ([2]; 0.39 mg/kg PO daily x7 days): 3.8 h | concentration at 2 h ([2]; 0.39 mg/kg PO daily x7 days): 2.5 ng/mL | concentration at 3 h ([2]; 0.39 mg/kg PO daily x7 days): 3.88 ng/mL | concentration at 4 h ([2]; 0.39 mg/kg PO daily x7 days): 5.57 ng/mL | concentration at 5 h ([2]; 0.39 mg/kg PO daily x7 days): 6.47 ng/mL | AUC ([2]; 0.39 mg/kg PO daily x7 days): 133 ng·h/mL | half-life ([2]; 0.39 mg/kg PO daily x7 days): 8.75 h | AUC(0-t) ([2]; 1.56 mg/kg PO daily x7 days): 21.3 ng·h/mL | Cmax ([2]; 1.56 mg/kg PO daily x7 days): 10.9 ng/mL | Tmax ([2]; 1.56 mg/kg PO daily x7 days): 4 h | concentration at 2 h ([2]; 1.56 mg/kg PO daily x7 days): 3.93 ng/mL | concentration at 3 h ([2]; 1.56 mg/kg PO daily x7 days): 8.2 ng/mL | concentration at 4 h ([2]; 1.56 mg/kg PO daily x7 days): 7.8 ng/mL | concentration at 5 h ([2]; 1.56 mg/kg PO daily x7 days): 7.76 ng/mL | AUC ([2]; 1.56 mg/kg PO daily x7 days): 231 ng·h/mL | half-life ([2]; 1.56 mg/kg PO daily x7 days): 21.2 h | AUC(0-t) ([2]; 6.25 mg/kg PO daily x7 days): 217 ng·h/mL | Cmax ([2]; 6.25 mg/kg PO daily x7 days): 95 ng/mL | Tmax ([2]; 6.25 mg/kg PO daily x7 days): 3.2 h | concentration at 2 h ([2]; 6.25 mg/kg PO daily x7 days): 27 ng/mL | concentration at 3 h ([2]; 6.25 mg/kg PO daily x7 days): 94.8 ng/mL | concentration at 4 h ([2]; 6.25 mg/kg PO daily x7 days): 77.8 ng/mL | concentration at 5 h ([2]; 6.25 mg/kg PO daily x7 days): 63.8 ng/mL | AUC ([2]; 6.25 mg/kg PO daily x7 days): 609 ng·h/mL | half-life ([2]; 6.25 mg/kg PO daily x7 days): 4.09 h | AUC(0-t) ([2]; 25 mg/kg PO daily x7 days): 1570 ng·h/mL | Cmax ([2]; 25 mg/kg PO daily x7 days): 711 ng/mL | Tmax ([2]; 25 mg/kg PO daily x7 days): 3 h | concentration at 2 h ([2]; 25 mg/kg PO daily x7 days): 401 ng/mL | concentration at 3 h ([2]; 25 mg/kg PO daily x7 days): 711 ng/mL | concentration at 4 h ([2]; 25 mg/kg PO daily x7 days): 487 ng/mL | concentration at 5 h ([2]; 25 mg/kg PO daily x7 days): 366 ng/mL | AUC ([2]; 25 mg/kg PO daily x7 days): 2770 ng·h/mL | half-life ([2]; 25 mg/kg PO daily x7 days): 2.2 h
